Patent publication US8828456B2, “Method of external skin application of composition containing red pine root extract” (Amorepacific Corporation, priority 2009, dated 2014)

Assay: Free radical removal activity (DPPH method)
Assay type: biochemical
Description: Specifically, each of the extracts obtained in Example 1 and Comparative Example 1 was diluted in ethanol to varying concentrations (0, 50, 100, 200, 300 and 400 μg/mL), and 10 μl of each dilution was added to each well of a 96-well plate. A solution of 5 mM DPPH in ethanol was added to each well to a total volume of 200 μl. The resulting solution was incubated at 37° C. for 30 minutes, and then measured at 520 nm using an ELISA reader (DI Biotech, Korea). Based on the measured absorbance, free radical removal activity was calculated according to the following Equation 1. As a positive control, vitamin C known to have excellent antioxidant activity was used. Radical removal activity (%)=absorbance of control-absorbance of sample/absorbance of control×100 Equation 1

O=C1O[C@H]([C@@H](O)CO)C(O)=C1O [Vitamin C, vitamin C]
Radical Removal Activity (%) (50 μg/mL): 30%
Radical Removal Activity (%) (100 μg/mL): 90%
Radical Removal Activity (%) (200 μg/mL): 91%
Radical Removal Activity (%) (300 μg/mL): 90%
Radical Removal Activity (%) (400 μg/mL): 90%
